Measurements reported in patent publication US20050037436A1, “Test systems and the use thereof for identifying and characterizing compounds” (priority 2000, published 2005).
“Also recorded” adds a separate entry of the source. Where two headings read alike, the source gives them in different places.

Tests used:
[1] = test system: HC110-R; format: cell-based, Haemonchus contortus; conditions: for Ca2+ response to substance alone: 400 ng/ml where stated, up to 50 min or 90 min preincubation
Procedure: (§1) The intracellular free Ca^2+ concentration [Ca^2+]i was measured in COS-7 and HEK293 cells transiently transfected with the HC110-R-EGFP or β2-AR-EGFP construct using the calcium imaging method (see also FIG. 11). In each case 2×10^5 COS-7 and HEK293 cells were applied to a 42 mm cover glass coated with 1% gelatine in 55 mm tissue culture dishes with 5 ml of DMEM medium (with 10% FCS and pen/strep). The transfection took place with the aid of the non-liposomal transfection reagent FuGENE 6 (Roche Molecular Biochemicals, Mannheim). […] Constructs of the HC110-R full-length clone with a GFP tag fused in the correct reading frame, and the complete cDNA of the β2-adrenergic receptor which had likewise been provided with a GFP tag at the 3′ end, were transfected.
(§2) After the incubation, the cells loaded with Fura-2/AM were examined under an inverted microscope (Zeiss, Axiovert, Germany) and, in parallel with this, in a digital imaging fluorescence microscope (PTI) and differentiated into transfected and untransfected cells at a wavelength of 440 and 490 nm respectively. On average, 5-7 transfected and non transfected cells were selected by fixing an ROI (region of interest). The extinction was measured at 340 nm (calcium-bound Fura-2/AM) and 380 nm (free Fura-2/AM), and the emission was measured at 510 nm. Evaluation took place using the Image Master 1.x software by forming the quotient of 340:510 nm, 380:510 nm and the ratio of 340/380:510 nm (background corrected images) as a function of the agent added.
Agents were always added 6 min after starting the measurement by removing an appropriate volume of Na^+ HBS buffer and pipetting the agent directly into the sample vessel for a further 30 to 50 min. The total volume in the sample vessel was constant at 1.5 ml throughout the experiment. […] Addition of CdCl2 and nifedipine took place immediately at the start of the experiment and before addition of α-LTX, and EGTA was added both at the start of the experiment and 4 min after the addition of α-LTX. Dissolved α-LTX was present in a concentration of 300 nM in 50 mM tris-HCl, pH 8.0; BAY 44-4400 was initially dissolved in pure DMSO (stock solutions between 0.004 and 10 μg/ml). The stock solutions were adjusted to the required concentration in the Na^+ HBS buffer. The maximum amount of the active substance BAY 44-4400 which could be dissolved at a final concentration of 0.1% DMSO was found by setting up serial dilutions in Na^+ HBS.
The data were analyzed using the Excel 98 table calculation programme. The results are derived from at least 2-4 reproduced experiments on in each case 4-8 transfected and un-transfected cells.

[2] = test system: HC110-R; assay: Ca2+ imaging of HEK-293 cells expressing HC110-R-Myc/His; format: cell-based, Haemonchus contortus; conditions: stably expressing cells; 400 ng/ml added 6 min before 75 nM α-LTX
[3] = molecular target: T1, mouse β2-adrenergic receptor (Mus musculus, UniProt P18762); assay: Ca2+ imaging of HEK-293 cells transfected with β2-R-GFP (control); format: cell-based; conditions: BAY 44-4400 present
T1 construct: was fused with a C-terminal EGFP tag by amplifying the full-length cDNA with the P117 mouse 2AR XhoI 5′ primer; expressed in transfected cells; host or cells: HEK-293, transient (pEGFP-N3)
Procedure: as §1, §2
Agents were always added 6 min after starting the measurement by removing an appropriate volume of Na^+ HBS buffer and pipetting the agent directly into the sample vessel for a further 30 to 50 min. The total volume in the sample vessel was constant at 1.5 ml throughout the experiment. […] Addition of CdCl2 and nifedipine took place immediately at the start of the experiment and before addition of α-LTX, and EGTA was added both at the start of the experiment and 4 min after the addition of α-LTX. […]
The data were analyzed using the Excel 98 table calculation programme. […]

[4] = test system: nematodes; assay: Anthelmintic / neuropharmacological activity on nematodes
[5] = 4 ng/ml added 6 min before 75 nM α-LTX

T1 sequence (P18762 whole entry, the tested form may be a part): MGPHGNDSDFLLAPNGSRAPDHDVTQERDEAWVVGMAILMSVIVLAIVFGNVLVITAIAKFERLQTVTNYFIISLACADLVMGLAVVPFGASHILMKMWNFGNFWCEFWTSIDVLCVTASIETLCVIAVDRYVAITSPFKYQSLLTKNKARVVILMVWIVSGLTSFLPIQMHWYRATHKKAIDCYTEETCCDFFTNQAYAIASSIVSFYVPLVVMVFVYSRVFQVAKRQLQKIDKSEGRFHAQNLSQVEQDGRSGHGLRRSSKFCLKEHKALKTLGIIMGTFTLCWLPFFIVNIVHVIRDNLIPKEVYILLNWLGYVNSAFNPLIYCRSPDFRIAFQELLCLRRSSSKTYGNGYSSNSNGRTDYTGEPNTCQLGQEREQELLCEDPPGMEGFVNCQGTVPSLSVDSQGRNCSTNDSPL

CC(C)C[C@H]1C(=O)O[C@H](Cc2ccc(N3CCOCC3)cc2)C(=O)N(C)[C@@H](CC(C)C)C(=O)O[C@H](C)C(=O)N(C)[C@@H](CC(C)C)C(=O)O[C@H](Cc2ccc(N3CCOCC3)cc2)C(=O)N(C)[C@@H](CC(C)C)C(=O)O[C@H](C)C(=O)N1C [BAY44-4400, cyclo(-D-Lac-L-MeLeu-D-p-morpholinyl-PhLac-L-MeLeu-)]
first small α-LTX-induced increase in [Ca2+]i [1, 5]: disappeared
α-LTX-induced increase in [Ca2+]i in presence of substance [1, 5]: 44 ± 6.0 nM
change in [Ca2+]i after preincubation with substance alone ([1]; 4 ng/ml or 400 ng/ml, 90 min preincubation, no α-LTX): no change in [Ca^2+]i
α-LTX-induced increase in [Ca2+]i after preincubation ([1]; 4 ng/ml, 90 min preincubation, substance removed, then 75 nM α-LTX): 95 ± 20.5 nM
plateau of [Ca2+]i after the peak ([1]; 4 ng/ml, 90 min preincubation, then 75 nM α-LTX): 23 ± 2.6 nM
change in [Ca2+]i, BAY44-4400 given with piperazine ([1]; 400 ng/ml BAY44-4400 + 1 or 10 μM piperazine, untransfected and HC110-R-GFP-transfected cells): no change in [Ca^2+]i was detectable
α-LTX-induced increase in [Ca2+]i in presence of substance ([1]; 400 ng/ml added 6 min before 75 nM α-LTX): 49 ± 4.2 nM
plateau of [Ca2+]i above initial values after the peak ([1]; 400 ng/ml added 6 min before 75 nM α-LTX, 8 min after peak): 11 ± 1.4 nM
delay of the α-LTX-induced increase ([1]; 400 ng/ml versus 4 ng/ml, 90 min preincubation): 12 min
Ca2+ response to substance alone ([1]; no α-LTX): does not influence the Ca^2+ concentration; also recorded: neither the very effective nematicide BAY44-4400 nor the virtually ineffective antipode PF1022-001 induces a Ca^2+ response
Ca2+ response to substance alone ([1]; no α-LTX, listed as BAY 44-4400): in no comparable way with a change in the intracellular Ca^2+ concentration
Ca2+-mediated response to substance alone ([1]; 100, 300 or 400 ng/ml and 1 or 10 μg/ml, 50 min, untransfected and HC110-R-GFP-transfected cells): At no concentration was a Ca^2+-mediated response detectable
mode of action on α-LTX signalling ([1]; HC110-R-transfected HEK-293 cells): acts as antagonist of α-LTX
first small α-LTX-induced increase in [Ca2+]i ([1]; incubation 6 minutes before 75 nM α-LTX): disappears
reduction of second α-LTX-induced increase ([1]; incubation 6 minutes before 75 nM α-LTX, 15 minutes after α-LTX): 85%
first α-LTX-induced increase in Ca2+ ([1]; preincubated 60 minutes before 30 minutes FURA loading, 75 nM α-LTX): complete disappearance
second α-LTX-induced increase in [Ca2+]i ([1]; preincubated 60 minutes before 30 minutes FURA loading, 30 minutes after 75 nM α-LTX): 70 nM
α-LTX-induced increase in [Ca2+]i in presence of substance [2]: complete inhibition
effect on isoproterenol-induced Ca2+ increase [3]: does not interfere with the isoproterenol-induced signal transmission
effect on isoproterenol-induced Ca2+ increase ([3]; listed as BAY 44-4400): unaffected by BAY 44-4400
anthelmintic / nematicidal activity in words [4]: very effective nematicide
